Experimental data published in article PMC11722180, “Structure–Activity Relationship Studies of Tetracyclic Pyrrolocarbazoles Inhibiting Heterotetrameric Protein Kinase CK2” (Molecules, 2024).
Structures can show the parent of a compound that is named as a salt.

Assays:
CK2α subunit = test system: CK2α subunit; parameters: method as in PMID 18553057; details: read-out: Inhibition of the kinase activity of the CK2α subunit IC50; cited from earlier work
CK2α/CK2β interaction = details: read-out: Inhibition of CK2α/CK2β interaction IC50; cited from earlier work
[1] = test system: human prostate tumor cell line; parameters: method as in PMID 39698287; details: cited from earlier work
CK2 = details: ATP competitive; read-out: CK2 inhibition IC50; cited from earlier work
[2] = molecular target: T1, CK2α/CK2β interaction (human CK2α1–335, human CK2β1–193) (Homo sapiens, UniProt P68400); test: Microscale thermophoresis (MST) assay of the CK2α/CK2β subunit interaction; assay type: binding
T1 construct: human CK2α^1–335; made in house
T1 sequence (P68400 1-335): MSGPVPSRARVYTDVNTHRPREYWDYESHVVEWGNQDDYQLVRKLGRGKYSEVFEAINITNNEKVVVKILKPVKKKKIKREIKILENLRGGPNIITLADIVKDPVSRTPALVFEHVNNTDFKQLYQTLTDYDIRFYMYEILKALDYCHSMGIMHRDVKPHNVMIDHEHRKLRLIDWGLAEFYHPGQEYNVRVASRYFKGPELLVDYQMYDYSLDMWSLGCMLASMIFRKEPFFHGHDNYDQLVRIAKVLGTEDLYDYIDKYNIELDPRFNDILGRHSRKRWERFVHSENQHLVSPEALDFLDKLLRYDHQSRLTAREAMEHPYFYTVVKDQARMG
Procedure: A microscale thermophoresis (MST) assay was used to determine the interaction of the CK2α and CK2β subunits. In this assay, a constant concentration of the fluorescently labeled CK2β subunit was added to increasing concentrations of the CK2α subunit and the thermophoretic shift was recorded, respectively. […] The same experiment was performed in the presence of 20, 50, or 100 µM of the test compounds (see Table 1). An increased KD′ value in the presence of the test compounds was evaluated as the inhibition of the association of the CK2α and CK2β subunits. The increased KD′ value was then transformed together with the employed concentration of the test compound into the Ki value for the inhibition of the CK2α/CK2β association (formula see Supporting Information).
The compounds were investigated at a final concentration of 20, 50, or 100 µM. […] Data analysis and statistical evaluation were conducted with GraphPad Prism v.6 for Windows (GraphPad Software, La Jolla, CA, USA, www.graphpad.com).

CK2 holoenzyme (CK2α2β2) = molecular target: T2, CK2 holoenzyme (CK2α2β2) (Homo sapiens, UniProt P68400); test: Capillary electrophoresis assay, inhibition of the CK2 holoenzyme kinase activity; assay type: biochemical
T2 construct: made in house; host or cells: E. coli BL21(DE3)
T2 sequence (P68400 whole entry): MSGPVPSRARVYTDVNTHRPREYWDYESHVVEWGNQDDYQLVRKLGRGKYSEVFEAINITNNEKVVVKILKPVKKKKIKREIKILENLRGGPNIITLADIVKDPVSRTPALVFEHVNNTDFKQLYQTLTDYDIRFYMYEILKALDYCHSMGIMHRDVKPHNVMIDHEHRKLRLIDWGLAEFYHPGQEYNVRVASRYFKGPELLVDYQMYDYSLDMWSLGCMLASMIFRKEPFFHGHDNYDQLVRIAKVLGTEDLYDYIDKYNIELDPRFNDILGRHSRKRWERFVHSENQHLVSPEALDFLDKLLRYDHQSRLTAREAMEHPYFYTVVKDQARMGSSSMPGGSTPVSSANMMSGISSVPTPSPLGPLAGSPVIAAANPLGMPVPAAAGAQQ
Procedure: The inhibition of the catalytic activity of the CK2 holoenzyme (CK2α2β2) was determined in an enzyme assay. In brief, the CK2 holoenzyme was incubated with the decapeptide […] and ATP. The amount of phosphorylated peptide (Ser7) was recorded by capillary electrophoresis (CE).
The capillary electrophoresis assay to determine the inhibition of the CK2 holoenzyme (CK2α2β2) was performed as described in refs. [40, 46]. The CK2 holoenzyme was recombinantly expressed in E. coli BL21(DE3) and purified according to the protocol by Grankowski et al.. Enzymatic activity was determined in the presence of 1 µg of CK2α2β2, 60 µM of ATP, and 114 µM of the substrate peptide […]. The assay buffer contained 60 mM NaCl and 10 mM MgCl2. Inhibition was determined in three independent experiments at a compound concentration of 10 µM, and the mean value and the standard deviation (SD) were calculated.

## COc1cc([C@H]2c3c([nH]c4ccccc34)[C@@H](C(=O)N3C(=O)OC[C@@H]3Cc3ccccc3)[C@H]3C(=O)OC(=O)[C@@H]23)cc(OC)c1OC [(+)-4 (W16)]
CK2α subunit
  IC50: 20 µM
CK2α/CK2β interaction
  IC50: […]

## O=C1CCc2c(oc3cc(Br)c(O)c(Br)c23)/C1=C/Nc1ccccc1 [2b]
[1]
  Antiproliferative activity: showed antiproliferative activity
CK2
  IC50: 0.0058 µM

## COC(=O)[C@H](Cc1c[nH]cn1)NC(=O)[C@H]1c2[nH]c3ccccc3c2[C@H](c2cc(OC)c(OC)c(OC)c2)[C@@H]2C(=O)NC(=O)[C@@H]21 [(+)-20a, Methyl N-{[(3aS,4R,10S,10aS)-1,3-dioxo-10-(3,4,5-trimethoxyphenyl)-1,2,3,3a,4,5,10,10a-octahydropyrrolo[3,4-b]carbazol-4-yl]carbonyl}-(S)-histidinate∙HCl]
[2]
  Kd: 0.101 ± 0.004 µM
[2]; MST, global analysis, KD′ = KD [1 + (ccompound/Ki)], n.s. = KD′ not significantly different from KD, read-out: Inhibition of CK2α/CK2β Interaction Ki
  Ki: 6.1 µM
CK2 holoenzyme (CK2α2β2); CE assay, 60 µM ATP, 114 µM peptide […]
  IC50: 2.5 µM
CK2 holoenzyme (CK2α2β2); first screening, test compound concentration 10 µM, read-out: Enzyme inhibition of CK2 holoenzyme
  inhibition at 10 µM: > 50%
